These results are taken from ChEMBL document CHEMBL3739371, “Small molecules enhance functional O-mannosylation of Alpha-dystroglycan” (Bioorg Med Chem, 2015).

The target in experiment [1] is T1, Dystroglycan (Cricetulus griseus) (UniProt G3H8F4).
T1 sequence (whole entry): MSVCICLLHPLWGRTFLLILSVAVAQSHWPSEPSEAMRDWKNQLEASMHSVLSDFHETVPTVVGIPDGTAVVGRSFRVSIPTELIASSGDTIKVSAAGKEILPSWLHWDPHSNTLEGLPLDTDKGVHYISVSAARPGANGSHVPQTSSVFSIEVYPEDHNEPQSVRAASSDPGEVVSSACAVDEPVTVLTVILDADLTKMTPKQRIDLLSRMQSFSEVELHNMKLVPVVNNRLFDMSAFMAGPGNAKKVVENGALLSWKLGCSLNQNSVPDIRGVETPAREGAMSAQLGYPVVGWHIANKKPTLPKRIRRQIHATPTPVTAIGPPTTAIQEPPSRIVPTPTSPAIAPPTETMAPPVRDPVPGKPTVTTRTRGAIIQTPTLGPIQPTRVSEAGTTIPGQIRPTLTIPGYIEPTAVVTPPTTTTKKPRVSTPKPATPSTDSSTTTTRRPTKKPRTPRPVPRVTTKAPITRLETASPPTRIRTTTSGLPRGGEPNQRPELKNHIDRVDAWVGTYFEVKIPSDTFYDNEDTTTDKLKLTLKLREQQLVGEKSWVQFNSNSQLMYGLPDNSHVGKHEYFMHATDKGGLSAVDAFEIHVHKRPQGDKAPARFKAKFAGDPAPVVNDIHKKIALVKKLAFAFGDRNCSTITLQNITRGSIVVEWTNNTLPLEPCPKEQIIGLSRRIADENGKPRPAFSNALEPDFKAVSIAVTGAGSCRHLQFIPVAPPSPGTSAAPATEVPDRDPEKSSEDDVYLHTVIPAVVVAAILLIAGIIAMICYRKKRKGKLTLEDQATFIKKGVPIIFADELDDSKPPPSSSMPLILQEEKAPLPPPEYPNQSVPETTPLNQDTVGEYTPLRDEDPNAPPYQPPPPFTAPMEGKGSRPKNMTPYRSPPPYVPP
Briefly: Increase of functional O-mannosylation of alpha-dystroglycan in Chinese hamster pro5 cells expressing LARGE after 48 hrs by alpha-screen assay. Format: cell-based. (Bead proximity is the source of the signal in Alpha formats.)

Experiment [2] has as its target T2, Dystroglycan 1 (Mus musculus) (UniProt Q62165).
T2 sequence (whole entry): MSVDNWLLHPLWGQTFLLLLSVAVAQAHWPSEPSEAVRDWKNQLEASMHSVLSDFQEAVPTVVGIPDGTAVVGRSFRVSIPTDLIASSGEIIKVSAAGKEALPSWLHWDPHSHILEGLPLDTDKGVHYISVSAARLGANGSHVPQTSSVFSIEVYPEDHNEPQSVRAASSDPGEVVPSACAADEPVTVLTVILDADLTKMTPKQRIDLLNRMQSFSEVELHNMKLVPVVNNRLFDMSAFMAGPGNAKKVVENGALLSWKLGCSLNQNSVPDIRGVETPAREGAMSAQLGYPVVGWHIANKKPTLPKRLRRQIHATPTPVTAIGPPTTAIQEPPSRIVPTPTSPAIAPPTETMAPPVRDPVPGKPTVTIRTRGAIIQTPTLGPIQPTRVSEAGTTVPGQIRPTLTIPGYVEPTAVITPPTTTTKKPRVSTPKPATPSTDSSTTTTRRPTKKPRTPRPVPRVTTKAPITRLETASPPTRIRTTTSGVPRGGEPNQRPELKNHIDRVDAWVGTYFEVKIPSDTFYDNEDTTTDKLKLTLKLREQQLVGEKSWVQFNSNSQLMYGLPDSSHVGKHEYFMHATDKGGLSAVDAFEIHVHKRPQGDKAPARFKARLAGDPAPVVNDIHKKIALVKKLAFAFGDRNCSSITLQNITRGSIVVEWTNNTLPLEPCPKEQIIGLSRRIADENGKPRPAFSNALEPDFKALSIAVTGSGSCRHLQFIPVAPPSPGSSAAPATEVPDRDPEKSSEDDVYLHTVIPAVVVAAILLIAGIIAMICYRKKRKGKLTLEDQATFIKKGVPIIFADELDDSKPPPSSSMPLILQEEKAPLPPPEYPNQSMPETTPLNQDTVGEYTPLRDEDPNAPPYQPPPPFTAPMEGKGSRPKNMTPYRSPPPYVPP
Briefly: Increase of functional O-mannosylation of alpha-dystroglycan in mouse C2C12 cells expressing LARGE after 48 hrs by alpha-screen assay. Format: cell-based.

In experiment [3] the target is T3, Dystroglycan 1 (Homo sapiens) (UniProt Q14118).
T3 sequence (whole entry): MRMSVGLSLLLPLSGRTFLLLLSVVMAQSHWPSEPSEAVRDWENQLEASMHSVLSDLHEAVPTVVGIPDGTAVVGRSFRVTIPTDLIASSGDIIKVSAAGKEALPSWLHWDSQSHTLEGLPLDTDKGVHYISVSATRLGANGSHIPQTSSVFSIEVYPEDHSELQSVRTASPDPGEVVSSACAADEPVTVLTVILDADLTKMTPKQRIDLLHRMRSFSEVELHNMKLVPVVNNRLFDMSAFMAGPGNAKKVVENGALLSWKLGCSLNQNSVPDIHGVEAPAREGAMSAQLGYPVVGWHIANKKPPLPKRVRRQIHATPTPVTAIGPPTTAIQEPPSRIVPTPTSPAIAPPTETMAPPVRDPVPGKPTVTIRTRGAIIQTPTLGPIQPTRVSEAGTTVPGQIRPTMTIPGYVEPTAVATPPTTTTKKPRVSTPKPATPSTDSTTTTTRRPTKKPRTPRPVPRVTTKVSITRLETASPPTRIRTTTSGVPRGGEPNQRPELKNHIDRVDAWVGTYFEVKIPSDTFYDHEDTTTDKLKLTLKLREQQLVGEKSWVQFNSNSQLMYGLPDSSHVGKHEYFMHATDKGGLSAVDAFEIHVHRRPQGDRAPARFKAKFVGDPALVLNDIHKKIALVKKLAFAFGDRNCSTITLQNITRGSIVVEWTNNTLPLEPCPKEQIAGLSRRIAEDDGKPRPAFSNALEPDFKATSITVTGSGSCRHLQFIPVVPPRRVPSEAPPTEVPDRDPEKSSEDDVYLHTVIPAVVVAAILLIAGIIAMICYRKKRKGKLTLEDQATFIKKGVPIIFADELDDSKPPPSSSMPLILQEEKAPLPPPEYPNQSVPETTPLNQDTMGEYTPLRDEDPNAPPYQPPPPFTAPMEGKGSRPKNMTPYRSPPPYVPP
Briefly: Increase of functional O-mannosylation of alpha-dystroglycan in human myotubes expressing myogenin after 48 hrs by alpha-screen assay.

In experiment [4] the target is T3, Dystroglycan 1 (Homo sapiens). Briefly: Increase of functional O-mannosylation of alpha-dystroglycan in human myoblasts after 48 hrs by immunofluorescence assay.
Experiment [5] shares this target. Put plainly: Increase of functional O-mannosylation of alpha-dystroglycan in human myotubes after 48 hrs by immunofluorescence assay.
The target of experiment [6] is T2, Dystroglycan 1 (Mus musculus). Put plainly: Increase of functional O-mannosylation of alpha-dystroglycan in mouse C2C12 cells expressing myogenin after 48 hrs by immunofluorescence assay. Format: cell-based.
For experiment [7] the target is unchanged. Briefly: Increase of functional O-mannosylation of alpha-dystroglycan in mouse C2C12 cells after 48 hrs by immunofluorescence assay. It is filed as cell-based.
The target in experiment [8] is T1, Dystroglycan (Cricetulus griseus). Briefly: Increase of functional O-mannosylation of alpha-dystroglycan in Chinese hamster Lec15.2 cells after 24 hrs by fluorescence assay.
The target is the same in experiment [9]. Briefly: Increase of functional O-mannosylation of alpha-dystroglycan in Chinese hamster pgsl-208 cells after 24 hrs by fluorescence assay.
For experiment [10] the target is unchanged. Put plainly: Increase of functional O-mannosylation of alpha-dystroglycan in Chinese hamster B421 cells after 24 hrs by fluorescence assay relative to control. It is filed as cell-based.
The target of experiment [11] is T3, Dystroglycan 1 (Homo sapiens). Briefly: Increase of functional O-mannosylation of alpha-dystroglycan in FKRP-deficient human myotubes after 24 hrs by fluorescence assay.

Activity calls are given as the source filed them. The calls are words filed in the database; no cut-off is given here. A value given as a limit tells only on which side of the number the result lay.

Molecule `CCC(c1nnnn1Cc1cccs1)N1CCN(c2nc3cc(N)cc(F)c3s2)CC1` (stereo unspecified) returned an EC1.5 in experiment [1] of 1.2 µM. The fold change (FC) was 8 in experiment [2] and less than 6 in experiment [10]. In addition, the result in experiment [3], in [6], in [7] and in experiment [11] was Active. The outcome in experiment [4], in experiment [5], in experiment [8] and in experiment [9] was inactive.
